Test results from patent publication US20030032003A1, “IN VIVO SELECTION” (priority 2000, published 2003).

Experiments:
wildtype mice [1] = test: Biochemical analysis of serum after hygromycin B; type: in vivo, mouse; conditions: 9 mg/kg single i.p., serum 48 hrs after treatment
Experimental: (§1) Serum biochemistry parameters analyzed included blood urea nitrogen ([…]), aspartate amino transferase (AST) and alanine amino transferase (ALT). The analyses were performed at Tufts University Veterinary Medical Diagnosis Laboratory with the chemical analyzer Hitachi 747. Blood was collected from the posterior vena cava of hyg^R mice that were treated with saline, 803 mg/kg and wildtype mice administered 9 mg/kg hygromycin B i.p.
(§2) Hyg^R mice were treated with the lethal dose of 803 mg/kg hygromycin B and wildtype mice were treated with the lethal dose of 9 mg/kg hygromycin B. As a control, hyg^R mice were also treated with the nontoxic dose of 9 mg/kg. Serum samples taken 48 hrs after treatment were evaluated for the levels of blood urea nitrogen (BUN), aspartate amino transferase (AST) and alanine amino transferase (ALT). Elevated BUN is associated with dehydration and/or renal insufficiency. Elevated activities of ALT and AST are characteristic for liver damage particularly necrosis, cirrhosis and/or hepatitis. Increased AST levels are also characteristic for muscle trauma, myocardial infarction or myositis.

hyg^R mice [2] = test: Biochemical analysis of serum after hygromycin B; type: in vivo, mouse; conditions: serum 48 hrs after treatment
Experimental: as §1, §2

wildtype mice [3] = test: Histopathological analysis of mouse tissues after Hygromycin B; type: in vivo; conditions: lethal dose 9 mg/kg
Experimental: (§3) The organs were prepared as paraffin-embedded glass slides stained with hematoxylin and eosin and evaluated as per the NTP (National Toxicology Program of NIEHS) standards. […] For liver, two cross sections, one of each of the two largest liver lobes were examined. For kidneys, an entire cross section (left longitudinal, right transverse) were evaluated. Lungs had two cross sections (one of each of the two largest lobes). The entire sections on the slides (all fields) were evaluated under blinded conditions for lesions and scored (graded) on a subjective basis compared to control animals. The grades were as follows: 1=minimal, 2=mild, 3=moderate, 4=marked, and 0=no pathological changes. The preparation and evaluation of slides used the NTP criteria and terminology (NIEHS, 1993).
(§4) Morphological manifestations of hygromycin B tissue specific toxicity in animals treated with lethal doses was assessed by microscopic analysis. Lethal doses of hygromycin B (9 mg/kg) in wildtype animals caused nephrotoxicity typified by tubule eosinophilia, degeneration, and necrosis characterized by cytoplasmic eosinophilia associated with necrosis, loss of tubule cellular and nuclear detail or degeneration, and pyknotic nuclei and fragmentation of cells. These lesions are typical of acute tubular nephrosis. […] The hyg^R mice treated with lethal doses of hygromycin B (803 mg/kg) had liver damage characterized as hepatocellular fatty change, acute inflammation, and hepatocellular necrosis. Liver lesions in the hyg^R transgenic mice were typified by hepatocellular necrosis with nuclear pyknosis and loss of cellular detail, acute infiltration with small foci of neutrophils, and fatty change with hepatocellular intracytoplasmic large distinct clear vacuoles that displaced nuclei. These liver lesions are characteristic of acute liver damage.

hyg^R mice [4] = test: as above; type: in vivo; conditions: lethal dose 803 mg/kg
Experimental: as §3, §4

[5] = tested on: hyg^R transgenic mice C57BL/6J-TgN(pPWL512hyg)1Ems; test: Acute toxicity of hygromycin B, approximate lethal dose; type: in vivo, mouse; conditions: for body weight, percentage of the body weight before the experiment / survival: hyg^R, 10 days
Experimental: (§5) The animals were kept in SPF conditions, supplied with standard diet and water ad libitum. The room was held at 22° C. with humidity 70% and 12 hours dark-light cycle. Hygromycin-B was purchased from Sigma. The compound was dissolved in sterile water before application and the solution was injected i.p.
(§6) The approximate lethal dose of hygromycin B after single i.p. injections was determined according to Deichmann and LeBlanc (1943). […] Two sets of six month old male mice (22-28 g) were used for all acute toxicity experiments. […] Total volume injected was 0.5 ml. The health status and body weights of animals were monitored daily for 10 consecutive days. The lowest dose in the dose response curve at which one mouse died was considered as the approximate lethal dose. […] The animals were checked twice a day. The maximum theoretical time the animals could be dead before necropsy was performed was 12 hrs.
(§7) The approximate lethal dose (Deichmann and LeBlanc 1943) of hygromycin B in transgenic hyg^R bearing as well as wildtype mice was determined as a measure of the acute toxicity. […] The first dose in the increasing sequence of doses at which the mice died was considered the approximate lethal dose. The health status of animals was monitored for ten consecutive days. Hyg^R transgenic and wildtype mice tolerated a single i.p. injection of hygromycin B without immediate toxic symptoms or distress. The approximate lethal dose of hygromycin B for wildtype mice was […] (Table 1). […] Lethal doses in both hyg^R expressing transgenic and wild type strains caused the same signs of decreased activity which progressed to lethargy and death. The body weight of animals after lethal doses decreased which was less severe at shorter survival duration after hygromycin treatment (Table 1).

wildtype C57BL/6J mice = test: as above; type: in vivo, mouse; conditions: for body weight, percentage of the body weight before the experiment / survival: wildtype, 10 days
Experimental: as §5, §6, §7

CN[C@H]1C[C@@H](N)[C@H](O)[C@@H](O[C@@H]2O[C@H](CO)[C@H](O)[C@@H]3OC4(O[C@H]23)O[C@H]([C@@H](N)CO)[C@H](O)[C@H](O)[C@H]4O)[C@@H]1O (stereo partly drawn) [hygromycin B, Hygromycin-B]
ALT (wildtype mice [1]): 108 ± 61.5 u/l
AST (wildtype mice [1]): 135 ± 29.7 u/l
BUN (wildtype mice [1]): 97.7 ± 5.5 mg/dL
ALT (hyg^R mice [2]; 9 mg/kg single i.p.): 28.7 ± 15.1 u/l
AST (hyg^R mice [2]; 9 mg/kg single i.p.): 43.0 ± 5.2 u/l
BUN (hyg^R mice [2]; 9 mg/kg single i.p.): 24.0 ± 4 mg/dL
ALT (hyg^R mice [2]; 803 mg/kg single i.p.): 108 ± 66.3 u/l
AST (hyg^R mice [2]; 803 mg/kg single i.p.): 102.0 ± 12.7 u/l
BUN (hyg^R mice [2]; 803 mg/kg single i.p.): 102 ± 55.1 mg/dL
Kidney Tubule degeneration, lesion severity grade (wildtype mice [3]): 2.2 ± 0.4
Kidney Tubule eosinophilia, lesion severity grade (wildtype mice [3]): 1.0 ± 1.2
Kidney Tubule necrosis, lesion severity grade (wildtype mice [3]): 1.2 ± 1.1
Liver Acute inflamation, lesion severity grade (wildtype mice [3]): 0
Liver Fatty change, lesion severity grade (wildtype mice [3]): 0
Liver Necrosis, lesion severity grade (wildtype mice [3]): 0
Kidney Tubule degeneration, lesion severity grade (hyg^R mice [4]): 0
Kidney Tubule eosinophilia, lesion severity grade (hyg^R mice [4]): 0
Kidney Tubule necrosis, lesion severity grade (hyg^R mice [4]): 0
Liver Acute inflamation, lesion severity grade (hyg^R mice [4]): 0.8 ± 1.0
Liver Fatty change, lesion severity grade (hyg^R mice [4]): 0.6 ± 0.8
Liver Necrosis, lesion severity grade (hyg^R mice [4]): 2.2 ± 0.4
approximate lethal dose ([5]; hyg^R animals, single i.p.): 535 mg/kg
increase of approximate lethal dose over the wildtype strain ([5]; hyg^R vs wildtype): 89 fold
body weight, percentage of the body weight before the experiment ([5]; 4 mg/kg single i.p.): 102 ± 2%
survival ([5]; 4 mg/kg single i.p.): surv (surv. animals survived the 10 days period)
body weight, percentage of the body weight before the experiment ([5]; 6 mg/kg single i.p.): 107 ± 4%
survival ([5]; 6 mg/kg single i.p.): surv (surv. animals survived the 10 days period)
body weight, percentage of the body weight before the experiment ([5]; 9 mg/kg single i.p.): 107 ± 3%
survival ([5]; 9 mg/kg single i.p.): surv (surv. animals survived the 10 days period)
body weight, percentage of the body weight before the experiment ([5]; 13.5 mg/kg single i.p.): 101 ± 2%
survival ([5]; 13.5 mg/kg single i.p.): surv (surv. animals survived the 10 days period)
body weight, percentage of the body weight before the experiment ([5]; 20 mg/kg single i.p.): 105 ± 1%
survival ([5]; 20 mg/kg single i.p.): surv (surv. animals survived the 10 days period)
body weight, percentage of the body weight before the experiment ([5]; 30 mg/kg single i.p.): 105 ± 3%
survival ([5]; 30 mg/kg single i.p.): surv (surv. animals survived the 10 days period)
body weight, percentage of the body weight before the experiment ([5]; 46 mg/kg single i.p.): 107 ± 5%
survival ([5]; 46 mg/kg single i.p.): surv (surv. animals survived the 10 days period)
body weight, percentage of the body weight before the experiment ([5]; 69 mg/kg single i.p.): 101 ± 3%
survival ([5]; 69 mg/kg single i.p.): surv (surv. animals survived the 10 days period)
body weight, percentage of the body weight before the experiment ([5]; 104 mg/kg single i.p.): 103 ± 2%
survival ([5]; 104 mg/kg single i.p.): surv (surv. animals survived the 10 days period)
body weight, percentage of the body weight before the experiment ([5]; 155 mg/kg single i.p.): 102 ± 2%
survival ([5]; 155 mg/kg single i.p.): surv (surv. animals survived the 10 days period)
body weight, percentage of the body weight before the experiment ([5]; 233 mg/kg single i.p.): 93 ± 5%
survival ([5]; 233 mg/kg single i.p.): surv (surv. animals survived the 10 days period)
body weight, percentage of the body weight before the experiment ([5]; 358 mg/kg single i.p.): 99 ± 3%
survival ([5]; 358 mg/kg single i.p.): surv (surv. animals survived the 10 days period)
body weight, percentage of the body weight before the experiment ([5]; 535 mg/kg single i.p.): 83 ± 5%
survival ([5]; 535 mg/kg single i.p.): 3 days
body weight, percentage of the body weight before the experiment ([5]; 803 mg/kg single i.p.): 89 ± 4%
survival ([5]; 803 mg/kg single i.p.): 3.5 days
body weight, percentage of the body weight before the experiment ([5]; 1205 mg/kg single i.p.): 88 ± 2%
survival ([5]; 1205 mg/kg single i.p.): 2 days
body weight, percentage of the body weight before the experiment ([5]; 1809 mg/kg single i.p.): 97 ± 2%
survival ([5]; 1809 mg/kg single i.p.): 1 days
body weight, percentage of the body weight before the experiment ([5]; 2709 mg/kg single i.p.): 98 ± 1%
survival ([5]; 2709 mg/kg single i.p.): 1 days
approximate lethal dose (wildtype C57BL/6J mice; wildtype mice, single i.p.): 6 mg/kg
body weight, percentage of the body weight before the experiment (wildtype C57BL/6J mice; 2.7 mg/kg single i.p.): 107 ± 3%
survival (wildtype C57BL/6J mice; 2.7 mg/kg single i.p.): surv (surv. animals survived the 10 days period)
body weight, percentage of the body weight before the experiment (wildtype C57BL/6J mice; 4 mg/kg single i.p.): 104 ± 1%
survival (wildtype C57BL/6J mice; 4 mg/kg single i.p.): surv (surv. animals survived the 10 days period)
body weight, percentage of the body weight before the experiment (wildtype C57BL/6J mice; 6 mg/kg single i.p.): 83 ± 2%
survival (wildtype C57BL/6J mice; 6 mg/kg single i.p.): 3 days
body weight, percentage of the body weight before the experiment (wildtype C57BL/6J mice; 9 mg/kg single i.p.): 91 ± 4%
survival (wildtype C57BL/6J mice; 9 mg/kg single i.p.): 3 days
body weight, percentage of the body weight before the experiment (wildtype C57BL/6J mice; 13.5 mg/kg single i.p.): 86 ± 6%
survival (wildtype C57BL/6J mice; 13.5 mg/kg single i.p.): 3 days
body weight, percentage of the body weight before the experiment (wildtype C57BL/6J mice; 20 mg/kg single i.p.): 83 ± 2%
survival (wildtype C57BL/6J mice; 20 mg/kg single i.p.): 3 days
body weight, percentage of the body weight before the experiment (wildtype C57BL/6J mice; 30 mg/kg single i.p.): 82 ± 2%
survival (wildtype C57BL/6J mice; 30 mg/kg single i.p.): 3 days
